Experiment [1] has as its system Male guinea pigs. The experiment is described as follows: Antigen-induced bronchospasm in actively sensitized guinea pigs. Format: in vivo. As to conditions: for Bronchospasm (percent of the maximum value): sensitized guinea pigs. As for the experimental part: Antiasthmatic effect of the test compounds was studied using an antigen-induced bronchospasm model in actively sensitized guinea pigs according to the Andersson method [Andersson P. Antigen induced bronchial anaphylaxis in actively sensitized guinea pig. Allergy (1980), Vol. 35, pp. 65-71].
Male guinea pigs were sensitized with intramuscular injection of 0.5 ml suspension comprising 20 micrograms ovalbumin (OVA, manufactured by the Sigma company [grade III]) and 100 mg Al(OH)3 per one animal. Anaphylaxis-provoking dose 150-200 µg/kg OVA in 0.1 ml normal saline was intravenously (v. jugularis) injected on day 26 after sensibilization. Bronchospasm induction and measuring external respiration parameters were carried out according to the method described in Yu-Hong L., Barnes P., Rogers D. Inhibition of neurogenic plasma exudation and bronchoconstriction by a K+ channel activator, BRL 38227, in guinea pig airways in vivo. Europ. J. Pharmacol. (?), Vol. 239, pp.257-259]. Measurement of respiration parameters was performed using a transducer (Ugo Basel, model 7020), connected with a cannula and a recorder (Millichrome), recording breathing amplitude. […] Efficacy of compounds was determined by change in bronchospasm value.
Inthal was used as a reference drug that was administered to animals at a dose 5 µg/kg according to the same dosage regimen as the test substances were administered. The control group of animals received equivalent amount of normal saline.
Groups of animals: group 1 - control; group 2 - animals given Inthal; group 3 - animals given oral compound XLIV; group IV - animals given oral compound III; group 5 - animals given intratracheal compound III; group 6 - animals given compound XLIX, group 7 - animals given compound XXXI, group 8 - animals given compound XLVI; group 9 - animals given compound VI, group 10 - animals given compound XLVIII.

The test system of experiment [2] is hepatic P-450 cytochrome system. The experiment is described as follows: Hexenal sleep duration in mice. Format: in vivo. Particulars: CBF1 mice, oral 3 days, control 25.91 ± 1.57. A digest of the protocol: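 Male mice (several inbred/hybrid lines, 18-20 g, n=10) and mongrel male guinea pigs (250-300 g, n=24) given compounds orally in drinking water for three days at 50 and 500 µg/kg. Hexenal given 24 h after last dose ([…]); sleep duration recorded in minutes.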

The subject of experiment [3] is mongrel rats. The experiment is described as follows: Antiischemic activity: necrosis zone after coronary artery occlusion (myocardial infarction). Format: in vivo. Particulars: 4 hours after occlusion, single intraperitoneal immediately after occlusion, 1000 µg/kg. As for the experimental part: Antiischemic activity of a compound was assessed by an integral test, i.e. effect on the necrosis zone area following reproduction of myocardial infarction in mongrel rats weighing 250-300 g.
Effect of a compound on the necrosis zone area was studied in 4 hours after arterial occlusion in rats using a differential indicator method [Sernov L.N., Gatsura V.V. A differential indicator method for determinig ischemic and necrotic zone in experimental myocardial infarction in rats. Bulletin of Experimental Biology and Medicine (1989), No 5, pp. 534-535]. All the painful manipulations were performed on animals under Ethaminal anesthesia (Ethaminal - 40 mg/kg intraperitoneally). Experiment was carried out in 15 hours after the last compound administration. Each group included 8 animals.
Groups of animals: • Group 1 - intact control -administration of normal saline four times. • Groups 2 and 3 - oral administration of the compound III at doses respectively 50 and 500 µg/kg for 4 days. • Group 4 - single intraperitoneal administration of Nicorandil at a dose 1 mg/kg immediately after occlusion.

In experiment [4] the test system is white mongrel male rats. Briefly: Paw edema induced by Freund's complete adjuvant. Format: in vivo. As to conditions: rats, FCA edema; once 50 µg/kg 1 hour before edema induction. As to the method: Experiment was carried out on white mongrel male rats weghing 280-300 g. The model of paw edema induced by Freund's complete adjuvant (FCA), was reproduced according to the method of Ezamuzie and Umezurike [Ezamuzie Ch., Umezurike C.C. Effect of histamine H2-receptor antagonists on acute inflammatory of the rat paw oedema. J. Pharmacol. (1989), Vol. 41, pp. 261-265]. Paw volume measurement was done using a plethysmograph (Ugo Basile). Inhibition of inflammatory reaction expressed in percent, as calculated according to the formula: 100-[(R-L(exper.))/(L):(R-L(control))/(L)x100](%) [formula] where R - the right paw volume, L - the left paw volume.
Each group included 10 animals.
Group of animals: • Group 1 - control, animals were administered 0.5 ml of 1% starch solution. • Group 2 - animals were administered the compound XLVIII. • Group 3 - animals were administered the compound III. • Group 4 - animals were administered Naproxene.

The subject of experiment [5] is white mongrel male rats. The experiment is described as follows: Carrageenan paw edema, oral administration (series I). Format: in vivo. Particulars: once 20 µg/kg 1 hour before edema induction. As to the method:
Experiment was carried out on white mongrel male rats weighing 280-300 g. Carrageenan-induced edema was caused according to the method of Winter et al. [[inter et al. In: De Rosa M., Giroud J.P., Willoughby D.A. Studies of the mediators of the acute inflammatory reponse induced in rats in different sites by carrageenan and turpentine. […] Paw volume measurement was done using a plethysmograph (Ugo Basile) 1, 3 and 4 hours after carrageenan administration. Inhibition of inflammatory reaction expressed in percent, was calculated according to the formula: 100-[(R-L(exper.))/(L):(R-L(control))/(L)x100](%) [formula] where R - the right paw volume, L - the left paw volume.
Series I of experiment. […] The reference drug Naproxene was once administered at a dose 20 µg/kg 1 hour before edema induction. Each group included 10 animals.

Experiment [6] deals with P-450 and B5 cytochromes. The experiment is described as follows: Hepatic content of P-450 and B5 cytochromes (microsomal liver fraction). Format: in vivo, guinea pigs. As to conditions: guinea pig liver microsomes; administered three times 72, 48 and 24 hours before. As for the experimental part: Change in hepatic monooxygenase system was studied on mongrel male guinea pigs with initial mass 250-300 g; each group included 12 animals. […]. The content of P-450 and […] cytochromes was measured according to the published method [Omura T., Scato R. The monooxide binding pigment of liver microsomes. 11. Solubilization, purification and properties. J. Chem. (1964), Vol. 239, pp. 2379-2385] in microsomal liver fraction, isolated using differential centrifugation method [Ahokas J., Pelkonen O., Karkin N. Charcaterisation of BP-hydroxylase of Trout-liver. Cancer Res. (1977), Vol. 37, pp. 3737-3743]. The priority method {Izotov M.V., Scherbakov V.M., Devichensky V.M. et al. The method of determining the content of P-450 cytochrome isoenzymes in liver microsomes. The inventor's certificate No 1,488,738. B.I. (1989), No 3.-6.06.09, ICI, 01. - No 33/15, No 33/48]. Microsomal protein content was determined using the modified Lowry method [Hartree E. Determination of protein: a modification of the Lowry method, that gives a linear photometric responces. Ann. Biochem. (1972), Vol. 48, pp. 422-427].

Experiment [7] concerns [C^14]-arachidonic acid. Briefly: Metabolism of [C^14]-arachidonic acid in pulmonary tissue homogenate of treated mice. Format: in vivo, CBA male mice. As to conditions: CBA mice lung homogenate; 80 µg/kg for three days. As for the experimental part: Studies were carried out on CBA male mice fed a standard vivarium ration. […] Then animals were sacrified, their lungs were taken out, frozen in liquid nitrogen, homogenized in a glass homogenizer manufactured by the Wheaton company (U.S.A.) at +4°C in 10 volumes 0.05 M Tris-HCl buffer. […] Densitometry of the autoradiochromatograms obtained on the X-ray films X-Omat AR (Kodak, U.S.A.) and HS 11 (ORWO, Germany) were performed on the KS 3 densiscan (Kipp and Zonnen, Holland). Quantative analysis of individual eucosanoids was carried out using radiometry of the fractions obtained with high performance liquid chromatography (the Gilson company HPLC-system, France; the Du Pont company ZORBAX C8 column, U.S.A.) and with elution of spots on TLC-plates.

[8] abbreviates: 50 µg/kg per os, 72, 48 and 18 hours prior to bronchospasm induction.

Molecules are shown by their SMILES. Marks after values point to notes of the source that are not given here.

`CCCCCC(=O)NCCc1c[nH]c2ccccc12` [compound XXXI, N-HEXANOYLTRYPTAMINE]: the “Bronchospasm (percent of the maximum value)” value in experiment [1] (setting [8]) was 39.3 7.6* percent of the maximum value. In addition, the entries for the “Hexenal sleep duration (minutes)” value in experiment [2] (50 µg/kg) and in experiment [2] (500 µg/kg) were 12.59 ± 0.88*** minutes and 12.61 ± 1.45*** minutes, respectively.

Regarding `NC(CCC(=O)NCCc1c[nH]c2ccc(O)cc12)C(=O)O` [compound XLIX, γ -L-glutamylserotonine], in experiment [1] (setting [8]), the “Bronchospasm (percent of the maximum value)” value was 33.0 9.4* percent of the maximum value. For the same compound, in experiment [2] (50 µg/kg), the “Hexenal sleep duration (minutes)” value is on record as 19.68 ± 2.04** minutes.

`O=C(NCCO[N+](=O)[O-])c1cccnc1` [Nicorandil, reference compound]: in experiment [3], the “Ischemia zone, percent to the total myocardial mass” value was 25,0 ± 1,9%; the “Necrosis zone percent to myocardial zone” value was 44,3 ± 5,0%; the “Necrosis zone, percent to the total myocardial mass” value is on record as 11,3 ± 1,6%.

On to `COc1ccc2cc([C@H](C)C(=O)O)ccc2c1` [Naproxene, reference compound], for which, in experiment [4], the “Inflammation inhibition (%)” value came out at 44%, the Volume increment was found to be 0.45 ± 0.02, the “Volume of paws (conditional units) Right” value was 1.75 ± 0.54 conditional units and the “Volume of paws (conditional units) left” value came to 1.30 ± 0.25 conditional units. Moreover, in experiment [5], the “Inflammation inhibition (%)” value turned out to be 37%, the Volume increment was 0.48 ± 0.02, the “Volume of paws (conditional units) Right” value was 1.82 ± 0.54 conditional units and the “Volume of paws (conditional units) left” value is given as 1.34 ± 0.25 conditional units.

On to `O=C([O-])c1cc(=O)c2c(OCC(O)COc3cccc4oc(C(=O)[O-])cc(=O)c34)cccc2o1.[Na+].[Na+]` [Inthal, reference compound], for which the “decrease in bronchospasm value” in experiment [1] (as compared with the control values) is reported as about 50%. In addition, in experiment [1] (5 mg/kg, 72, 48 and 18 hours prior to bronchospasm induction), the “Bronchospasm (percent of the maximum value)” value is 40.7 3.4* percent of the maximum value.

With `CCC1(c2ccccc2)C(=O)NC(=O)NC1=O` [Phenobarbital, reference compound], in experiment [6], the “B5 /P-450” value came out at 0.81, the “B5 cytochrome nM/mg of protein” value was 1.21 ± 0.10 nM/mg of protein, the “P-450B cytochromes nM/mg of protein” value was 0.76 ± 0.08 nM/mg of protein and the P-450B/p-450L turned out to be 1.02. Also, the “P-450 cytochrome nM/mg of protein” value in experiment [6] is 1.50 ± 0.09 nM/mg of protein. In addition, in experiment [7], the “5-HETE+HHT, percent of AA conversion” value is on record as 10.5 ± 0.26% of AA conversion; the “6-keto-PGF1α, percent of AA conversion” value is 4.12 ± 0.12% of AA conversion; the “12-, 15-HETE, percent of AA conversion” value is reported as 27.1 ± 0.11% of AA conversion; the “PGE2, percent of AA conversion” value was 3.82 ± 0.14% of AA conversion. In experiment [7], the “PGF2α, percent of AA conversion” value was 7.91 ± 0.08% of AA conversion; the “Phospholipids, percent of AA conversion” value is on record as 8.18 ± 0.21% of AA conversion; the “TXB2, percent of AA conversion” value is listed as 6.21 ± 0.18% of AA conversion; the “Unmetabolized AA, percent of AA conversion” value was 14.5 ± 0.28% of AA conversion.

The values are drawn from EP2229935A1, “Peptide derivatives or pharmaceutically acceptable salts thereof, method for producing the same, use of said derivatives and pharmaceutical composition” (Nebolsin, Vladimir Evgenievich, priority 1997, dated 1999).
